Consider one molecule from patent US20020049157A1, “Use of proteasome inhibitors for treating cancer, inflammation, autoimmune disease, graft rejection and septic shock” (priority 1998, published 2002).

The conditions of series [1]: aqueous solutions of high pH; cited from earlier work.
Another series has as its system IL-2. Kind of series: IL-2 production by PBMC after PHA stimulation. Type of series: cell-based, human. The settings on record: 2 to 4 days after PHA; LAC 10 μM added at the beginning; data not shown. The protocol:
In the four systems of T and B cell activation and proliferation studied in the first section, the growth promoting activity of IL-2 is indirectly (for stimulation by PHA, anti-CD3, and anti-CD28 plus ionomycin), or directly (for SAC plus IL-2) involved. We then investigated the role of proteasome in IL-2Rα expression and IL-2 production. […] Under the experimental condition used, the viability of the LAC-treated cell was reasonable (>80% at 40 h) as described in the previous section as LAC was added only once initially. Moreover, no consistent change of IL-2 production in LAC-treated cells was a functional indication that the cell viability was reasonable and is not of a concern in interpreting the data. The results from this section indicate that IL-2Rα upregulation but not IL-2 production is proteasome-dependent, and the suppressed IL-2Rα expression likely contributes to LAC's inhibitory effect on T cells activation and proliferation. The Proteasome Activity is Critically Required Between G0 and G1/S Boundary in T Cells

The next series addresses 20S proteasome (Rattus norvegicus, UniProt P28075). Nature of the series: 20S proteasome chymotrypsin-like activity, positive control for LAC. Type of series: biochemical.
A further series relates to Jurkat cells. Kind of series: Electron microscopy of Jurkat cells. Format: cell-based. The settings on record: LAC 6 μM; 24 h. As to the method:
E and F: Morphology of Jurkat cell treated with LAC. Jurkat cells were cultured in the absence (E) or presence (F) of LAC (6 μM) for 24 h and were evaluated with EM. Arrows indicate condensed nuclei.
Electron microscopy was also employed to examine the mode of cell death induced by LAC. The resting T cells (cells cultured in medium, FIG. 3A), activated T cells (40 h after PHA activation, FIG. 3C), and Jurkat cells (FIG. 3E) were all healthy looking. […] The resting T cells treated with LAC (10 μM) for 24 h were still healthy (FIG. 3B).
T cells and Jurkat cells were examined by electron microscopy as described by Tsao and Duguid (Tsao et al., 1987, Exp. Cell Res. 168:365).

Another series concerns Cyclin E. Kind of series: Immunoblotting of Cyclin E level in T cells. Format: cell-based, human. The protocol: Tonsillar T cells were activated with PHA (2 μg/ml) for a period as indicated in each graph. LAC (10 μM) was added once at 0 h. The cells were harvested at 16 h, 24 h, or 40 h as indicated. An equal amount of lysate protein ([…]) was precipitated with rabbit anti-CDK4, anti-CDK2 or anti-Cyclin E antisera (2.5 μg Ab/sample). The immune complexes were assayed for their kinase activities using histone H1 as a substrate. (A) CDK4 kinase activity. (B) CDK2 kinase activity. (C) Cyclin E-associated CDK activity. The membrane in (C) was subsequently hybridized with anti-Cyclin E (1 μg/ml) followed by ^125I-protein A for the evaluation of the protein level of Cyclin E.
Tonsillar T cells were stimulated with PHA (2 μg/ml) for 40 h in the presence of hydroxyurea (1 mM), and these cells were blocked at the G1/S boundary (G1 block). The synchronization was released by washing out hydroxyurea, and the cells were recultured in medium containing 2 μg/ml PHA in the absence or presence of LAC ([…], added once at the time of the release). The cells were harvested at 6 h and 22 h post the G1/S block. […]
Immunoblotting was employed to evaluate the levels of Cyclin E, cyclin A, p21^Cip1 and p27^Kip1. […] The cleared lysates were quantitated for protein concentrations. […] The signals on the membrane were detected by [^125I]-protein A followed by autoradiography.

A further series has as its system Bax, Bak and Bad. Kind of series: Immunoblotting of Bax, Bak and Bad in Jurkat cells. Format: cell-based. The settings on record: lactacystin 6 μM. The protocol:
Jurkat cells were treated with lactacystin (6 μM) for 5 h (lanes 2 and 4 of panel A), 4 h (lane 2 of panel B) or 7 h (lane 3 of panel B), lane 1 in panels A and B is untreated control samples. The cells were separated into mitochondrial (mito in panel A and mitochondria in panel B) and cytosolic (cytosol in panel A) fractions, and the lysate of these two fractions analyzed by immunoblotting using goat anti-Bik, and rabbit anti-Bax, Bak and Bad Ab (all from Santa Cruz Biotech, Santa Cruz, Calif.) followed by enhanced chemiluminescence (ECL, kit from Amersham).

Protocol for 20S proteasome: Human PBMC were cultured in the absence or presence of 2 μg/ml PHA or 10 nM RAPA for 16 h-70 h as indicated. The cells were then harvested, and the chymotrypsin-like activity of whole cells lysates was assayed in the absence or presence of 20 μM proteasome inhibitor LAC. The data are presented as arbitrary units of fluorescence intensity per 20 μg lysate protein. The experiments were repeated three times and a representative one is shown. Samples are in duplicate and the mean±SD is shown. (A) Total chymotrypsin-like activity in the lysate of PBMC. (B) Lactacystin-inhibitable chymotrypsin-like activity in the lysate of 70 h PBMC. […] LAC was always added to the lysates during the proteinase assay 15 min before the addition of the substrate. The solid bars represent the activity in the presence of LAC. The net proteasome activities are calculated as the total activity minus the remaining activity after the LAC addition.
PBMC were cultured with or without PHA (2 μg/ml) and RAPA (10 nM). After 16 h-70 h, the cells were harvested and sonicated in 300 μl PBS on ice for 40 sec. Twenty micrograms of protein per sample from the cleared lysates were supplemented to 100 μl with 0.1 M Tris buffer (pH 8.2). […] The samples were then diluted to 2 ml with 0.1 M Tris pH8.2, and measured for their fluorescent intensity by a PTI fluorometer (Photo Technology International, South Brunswick, N.J.). […]

Regarding `CC(=O)N[C@@H](CSC(=O)[C@]1([C@@H](O)C(C)C)NC(=O)[C@H](C)[C@@H]1O)C(=O)O` [LAC, lactacystin], in series [1], the “stability in aqueous solutions” value is recorded as “unstable”. The IL-2 production result in the series on IL-2 is listed as “no consistent difference was found”. At 20S proteasome (LAC at 10 μM), testing at 10 µM gave an inhibition of 90%. In addition, at 20S proteasome (LAC increased to 20 μM), the “inhibitory effect on the 20S proteasome activity” value is given as “did not further increase the inhibitory effect”. Also, the “nuclear condensation by electron microscopy” value in the series on Jurkat cells is reported as “frequently observed”. For the same molecule, the “decline of Cyclin E level after the G1/S boundary” value with Cyclin E (PHA plus hydroxyurea block, released, LAC added at release, 6 h and 22 h) is given as “decline was prevented”. Further, the “Cyclin E protein level” value in the series on Cyclin E (PHA-activated T cells, LAC added once at 0 h) was “increased”. The “amounts of Bax, Bak and Bad” value in the series with Bax, Bak and Bad is reported as “does not appear to have altered”.

One may read the inhibition as the change of the read-out against control, counted positive when it falls.
